Tests used:
[1] = system: AC16 cells; assay: TTR-induced cytotoxicity in AC16 cells, resazurin reduction assay; format: cell-based, human; conditions: 16 μM compound, 8 μM TTR; 24 h
Source text: Error bars indicate s.e.m. […] Error bars indicate s.e.m. (n=4). […] Error bars indicate s.e.m. (n=3).

[2] = system: T1, A25T-TTR; assay: A25T-TTR sedimentation assay (total protein precipitation); format: biochemical, human; conditions: four molar equivalents (15 μM); pH 5.0, 37 °C, 22 h
T1 construct: TTR is composed of four identical 127 amino-acid residue β-sheet-rich subunits; made in house; host or cells: Escherichia coli BL21(DE3), pET expression system
Description: TTR aggregation can also be measured by sedimentation using centrifugation. […] TTR aggregation induction was performed as described above. […] The supernatant was carefully removed, and 400 μl of Guanidine (8 M) was added to each sample and subsequently incubated for 1 h to unfold the aggregated TTR. The amount of resolubilized TTR was measured by absorbance at 280 nm. The percentage of TTR precipitated was calculated with respect to total (soluble) TTR at time 0. […]
aggregation as measured by total protein precipitation. […]
aggregation conditions (pH 4.4 and 37°C) for 72 hours. The samples were then centrifuged at 20,000 x g for 1 h at 4 °C and the supernatants (soluble protein) were carefully removed. The precipitated TTR from each sample was resolubilized by addition of 8 M guanidine solution followed by 1 h incubation at RT. TTR concentration was measured by spectroscopy at 280 nm and total amount of resolubilized TTR was calculated. The data is presented as % insoluble […]
was performed for A25T-TTR at pH 5.0 and 37°C for 22 hours . […]

[3] = system: A25T-TTR; assay: A25T-TTR aggregation inhibition, turbidity, pH 5.0; conditions: four molar equivalents (15 μM); A25T-TTR 3.6 μM; pH 5.0, 37 °C, 22 h
[4] = biological target: Y78F-TTR (Homo sapiens, UniProt P02766, Y98F); assay: Y78F-TTR aggregation inhibition, turbidity at 340 nm, pH 4.2
[5] = system: T2, L55P-TTR; assay: Dot-blot filter assay of L55P-TTR aggregation secreted by RN22 cells; format: cell-based, human; conditions: 1 μM in the medium
T2 construct: TTR is composed of four identical 127 amino-acid residue β-sheet-rich subunits; expressed in transfected cells; host or cells: rat Schwannoma RN22 cells, metallothionein promoter, ZnSO4 induction
Description: The extent of extracellular L55P-TTR aggregation was monitored by a filter trap assay followed by TTR immunodetection.
The rat Schwannoma cell line RN22 stably co-transfected with TTR L55P cDNA under the control of the metallothionein promoter was used to test the inhibitors of TTR aggregation as in ref. [51]. […] TTR in the medium was quantified by ELISA, and the volume of medium corresponding to 500 ng of TTR was applied on to a 0.2-μm pore cellulose acetate membrane filter (Schleicher and Schuell) using a manifold system (Gibco BRL) to separate soluble proteins from aggregates. […] Detection was performed with ECL (GE Healthcare). Dot blot quantification was performed using the ImageQuant program. The percentage of aggregation inhibition was calculated as 100 × ((Control—Treated)/Control). Experiments were repeated three times in triplicate.

[6] = system: WT and V30M-TTR tetramers in plasma; assay: TTR tetramer stability in human plasma by IEF under semi-denaturing conditions; format: biochemical; conditions: 1.4 mM, overnight 4 °C, 4 M urea
[7] = Tolcapone quantification in human plasma after oral administration (UPLC-MS/MS); format: in vivo; conditions: 200 mg
Description: TTR stabilization in vivo was measured using an immunoturbidimetric assay as in Fig. 4c. The fraction of initial tetramer concentration (FOI) was determined in triplicate for each sample (FOI=TTR tetramer after 48 h urea treatment/TTR tetramer at time 0 in the presence of urea).
Blood was collected 30 min before administration and 2 h after the dose in BD Vacutainer tubes with Lithium-Heparin and gel for plasma separation, following the manufacturer's instructions. Briefly, after gently mixing the tubes by inversion, blood was centrifuged at 1,300g for 10 min at 20 °C. Supernatants were collected and immediately stored at −80 °C until analysis.
Extracted samples were analysed on a Waters Acquity UPLC coupled with a Waters Xevo TQ MS triple quadrupole mass spectrometer. Chromatographic separation was achieved on an Acquity HSS C18 column using a gradient elution with the mobile phase of methanol and 0.1% formic acid in water.

[8] = biological target: WT-TTR (Homo sapiens, UniProt P02766); assay: Isothermal titration calorimetry, WT-TTR
[9] = no reference given; cited from earlier work
[10] = general model, two ligand-binding sites

RA (%): percent reduction of TTR aggregation rate at high inhibitor concentration [4]: 89.13% | concentration at 2 h [7]: 13.6 µM | TΔs1 binding entropy ([8]; first ligand): 1.8 kcal/mol | Δh1 site-specific binding enthalpy ([8]; first ligand): -8.7 kcal/mol | ΔH1 overall binding enthalpy [8, 10]: -8.7 kcal/mol | ΔH2 overall binding enthalpy [8, 10]: -18.4 kcal/mol | β2 overall association constant [8, 10]: 7.9 × 10^14 M^−2 | TΔs2 binding entropy ([8]; second ligand): 0.2 kcal/mol | Δh2 site-specific binding enthalpy ([8]; second ligand): -9.7 kcal/mol
Compound: Cc1ccc(C(=O)c2cc(O)c(O)c([N+](=O)[O-])c2)cc1 [tolcapone]
effect on WT-TTR and V122I-TTR induced reduction in cell viability [1]: rescued this toxic effect | reduction of A25T-TTR aggregation (sedimentation, Supplementary Fig. 1b) [2]: 50% | reduction of A25T-TTR aggregation (turbidity, Fig. 1d) [3]: 40% | reduction of L55P-TTR aggregation compared with untreated cells [5]: ~90% | TTR tetramer stabilization in plasma [6]: stabilized WT and V30M-TTR tetramers in plasma | half-life in plasma [9]: 2 to 3 h
